{
  "source": "ChEMBL document CHEMBL2401680",
  "about": "“A highly catalytically active γ-carbonic anhydrase from the pathogenic anaerobe Porphyromonas gingivalis and its inhibition profile with anions and small molecules” (Bioorg Med Chem Lett, 2013)",
  "key": {"[1]": {"assay": "Inhibition of Porphyromonas gingivalis recombinant CA by CO2 hydration assay"}, "Carbonic anhydrase": {"target": "T1, Carbonic anhydrase (Methanosarcina thermophila, UniProt P40881)", "T1 sequence (P40881 whole entry)": "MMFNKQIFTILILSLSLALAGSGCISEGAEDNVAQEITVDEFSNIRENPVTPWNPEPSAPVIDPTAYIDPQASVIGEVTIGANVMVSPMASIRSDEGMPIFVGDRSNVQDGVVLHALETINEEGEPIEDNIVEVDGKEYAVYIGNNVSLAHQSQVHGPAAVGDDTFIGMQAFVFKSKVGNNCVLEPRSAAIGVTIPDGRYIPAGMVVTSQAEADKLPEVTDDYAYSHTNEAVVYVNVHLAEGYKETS", "assay": "Inhibition of Methanosarcina thermophila recombinant gamma-CA by CO2 hydration assay"}},
  "data": [
    {"smiles": "[N-]=[N+]=[N-]", "note": "[SODIUM AZIDE]", "values": [
      {"measurement": "Ki", "setting": "[1]", "value": 0.073, "unit": "mM"}
    ]},
    {"smiles": "[Cl-].[Na+]", "note": "[SODIUM CHLORIDE]", "values": [
      {"measurement": "Ki", "setting": "[1]", "value": 0.94, "unit": "mM"},
      {"measurement": "Ki", "setting": "Carbonic anhydrase", "value": "> 200", "unit": "mM"}
    ]},
    {"smiles": "O=C([O-])O.[Na+]", "note": "[SODIUM BICARBONATE]", "values": [
      {"measurement": "Ki", "setting": "[1]", "value": 0.96, "unit": "mM"},
      {"measurement": "Ki", "setting": "Carbonic anhydrase", "value": 42, "unit": "mM"}
    ]},
    {"smiles": "[Br-].[Na+]", "note": "[SODIUM BROMIDE]", "values": [
      {"measurement": "Ki", "setting": "[1]", "value": 0.92, "unit": "mM"},
      {"measurement": "Ki", "setting": "Carbonic anhydrase", "value": 60, "unit": "mM"}
    ]},
    {"smiles": "O=S(=O)(O)OOS(=O)(=O)O", "note": "[SODIUM PERSULFATE]", "values": [
      {"measurement": "Ki", "setting": "[1]", "value": 8.7, "unit": "mM"}
    ]},
    {"smiles": "OB(O)c1ccccc1", "note": "[PHENYLBORONIC ACID]", "values": [
      {"measurement": "Ki", "setting": "[1]", "value": 0.0098, "unit": "mM"}
    ]},
    {"smiles": "O=[Se](=O)(O)O", "note": "[SODIUM SELENATE]", "values": [
      {"measurement": "Ki", "setting": "[1]", "value": 85.5, "unit": "mM"}
    ]},
    {"smiles": "[I-].[Na+]", "note": "[SODIUM IODIDE]", "values": [
      {"measurement": "Ki", "setting": "[1]", "value": 8.7, "unit": "mM"},
      {"measurement": "Ki", "setting": "Carbonic anhydrase", "value": 160, "unit": "mM"}
    ]},
    {"smiles": "O=[Te](=O)(O)O", "note": "[SODIUM TELLURATE]", "values": [
      {"measurement": "Ki", "setting": "[1]", "value": 16.7, "unit": "mM"}
    ]},
    {"smiles": "NS(=O)(=O)O", "note": "[SULFAMATE]", "values": [
      {"measurement": "Ki", "setting": "[1]", "value": 0.093, "unit": "mM"}
    ]},
    {"smiles": "O=S(=O)(O)ONOS(=O)(=O)O", "note": "[SODIUM IMINODISULFATE]", "values": [
      {"measurement": "Ki", "setting": "[1]", "value": 7.7, "unit": "mM"}
    ]},
    {"smiles": "O=S([O-])O.[Na+]", "note": "[SODIUM BISULFITE]", "values": [
      {"measurement": "Ki", "setting": "[1]", "value": 9.3, "unit": "mM"},
      {"measurement": "Ki", "setting": "Carbonic anhydrase", "value": 11.7, "unit": "mM"}
    ]},
    {"smiles": "CCN(CC)C(=S)S", "note": "[DITIOCARB SODIUM]", "values": [
      {"measurement": "Ki", "setting": "[1]", "value": 0.004, "unit": "mM"}
    ]},
    {"smiles": "F[B-](F)(F)F.[Na+]", "note": "[SODIUM TETRAFLUOROBORATE]", "values": [
      {"measurement": "Ki", "setting": "[1]", "value": "> 200", "unit": "mM"}
    ]},
    {"smiles": "O=C([O-])[O-].[Na+].[Na+]", "note": "[SODIUM CARBONATE]", "values": [
      {"measurement": "Ki", "setting": "[1]", "value": 0.89, "unit": "mM"},
      {"measurement": "Ki", "setting": "Carbonic anhydrase", "value": 6.7, "unit": "mM"}
    ]},
    {"smiles": "O=[As](O)(O)c1ccccc1", "note": "[PHENYLARSONIC ACID]", "values": [
      {"measurement": "Ki", "setting": "[1]", "value": 0.09, "unit": "mM"}
    ]},
    {"smiles": "O=S(=O)([O-])[O-].[Na+].[Na+]", "note": "[SODIUM SULFATE ANHYDROUS]", "values": [
      {"measurement": "Ki", "setting": "[1]", "value": 8.7, "unit": "mM"},
      {"measurement": "Ki", "setting": "Carbonic anhydrase", "value": "> 200", "unit": "mM"}
    ]},
    {"smiles": "N=C=S", "note": "[SODIUM ISOTHIOCYANATE]", "values": [
      {"measurement": "Ki", "setting": "[1]", "value": 0.093, "unit": "mM"},
      {"measurement": "Ki", "setting": "Carbonic anhydrase", "value": 7, "unit": "mM"}
    ]},
    {"smiles": "[F-].[Na+]", "note": "[SODIUM FLUORIDE]", "values": [
      {"measurement": "Ki", "setting": "[1]", "value": 0.95, "unit": "mM"}
    ]},
    {"smiles": "S", "note": "[SODIUM HYDROSULFIDE]", "values": [
      {"measurement": "Ki", "setting": "[1]", "value": 0.092, "unit": "mM"}
    ]},
    {"smiles": "O=[N+]([O-])[O-].[Na+]", "note": "[SODIUM NITRATE]", "values": [
      {"measurement": "Ki", "setting": "[1]", "value": 8.5, "unit": "mM"},
      {"measurement": "Ki", "setting": "Carbonic anhydrase", "value": 36.5, "unit": "mM"}
    ]},
    {"smiles": "N=C=[Se]", "note": "[SODIUM ISOSELENOCYANATE]", "values": [
      {"measurement": "Ki", "setting": "[1]", "value": 0.91, "unit": "mM"}
    ]},
    {"smiles": "NS(N)(=O)=O", "note": "[SULFAMIDE]", "values": [
      {"measurement": "Ki", "setting": "[1]", "value": 0.0092, "unit": "mM"}
    ]},
    {"smiles": "S=C(S)S", "note": "[SODIUM CARBONOTRITHIOATE]", "values": [
      {"measurement": "Ki", "setting": "[1]", "value": 0.097, "unit": "mM"}
    ]},
    {"smiles": "[O-][Cl+3]([O-])([O-])O", "note": "[SODIUM PERCHLORATE]", "values": [
      {"measurement": "Ki", "setting": "[1]", "value": "> 200", "unit": "mM"}
    ]},
    {"smiles": "O=BOB(O)OB(O)OB=O", "note": "[SODIUM TETRABORATE]", "values": [
      {"measurement": "Ki", "setting": "[1]", "value": 71.6, "unit": "mM"}
    ]},
    {"smiles": "O=NO", "note": "[SODIUM NITRITE]", "values": [
      {"measurement": "Ki", "setting": "[1]", "value": 3.1, "unit": "mM"}
    ]}
  ]
}
